Literature values in patent US6631329B1, “Use of the crystal structure of Staphylococcus aureus isoleucyl-tRNA synthetase in antibiotic design” (Yale University, priority 1999, dated 2003).
One block for each compound: values may come before it.

What was measured:
[1] = tested on: Gram-negative bacterial IRS; settings: many Gram-negative bacterial IRS
[2] = target: T1, human isoleucyl-tRNA synthetase (Homo sapiens, UniProt P41252)
T1 sequence (P41252 1-1262): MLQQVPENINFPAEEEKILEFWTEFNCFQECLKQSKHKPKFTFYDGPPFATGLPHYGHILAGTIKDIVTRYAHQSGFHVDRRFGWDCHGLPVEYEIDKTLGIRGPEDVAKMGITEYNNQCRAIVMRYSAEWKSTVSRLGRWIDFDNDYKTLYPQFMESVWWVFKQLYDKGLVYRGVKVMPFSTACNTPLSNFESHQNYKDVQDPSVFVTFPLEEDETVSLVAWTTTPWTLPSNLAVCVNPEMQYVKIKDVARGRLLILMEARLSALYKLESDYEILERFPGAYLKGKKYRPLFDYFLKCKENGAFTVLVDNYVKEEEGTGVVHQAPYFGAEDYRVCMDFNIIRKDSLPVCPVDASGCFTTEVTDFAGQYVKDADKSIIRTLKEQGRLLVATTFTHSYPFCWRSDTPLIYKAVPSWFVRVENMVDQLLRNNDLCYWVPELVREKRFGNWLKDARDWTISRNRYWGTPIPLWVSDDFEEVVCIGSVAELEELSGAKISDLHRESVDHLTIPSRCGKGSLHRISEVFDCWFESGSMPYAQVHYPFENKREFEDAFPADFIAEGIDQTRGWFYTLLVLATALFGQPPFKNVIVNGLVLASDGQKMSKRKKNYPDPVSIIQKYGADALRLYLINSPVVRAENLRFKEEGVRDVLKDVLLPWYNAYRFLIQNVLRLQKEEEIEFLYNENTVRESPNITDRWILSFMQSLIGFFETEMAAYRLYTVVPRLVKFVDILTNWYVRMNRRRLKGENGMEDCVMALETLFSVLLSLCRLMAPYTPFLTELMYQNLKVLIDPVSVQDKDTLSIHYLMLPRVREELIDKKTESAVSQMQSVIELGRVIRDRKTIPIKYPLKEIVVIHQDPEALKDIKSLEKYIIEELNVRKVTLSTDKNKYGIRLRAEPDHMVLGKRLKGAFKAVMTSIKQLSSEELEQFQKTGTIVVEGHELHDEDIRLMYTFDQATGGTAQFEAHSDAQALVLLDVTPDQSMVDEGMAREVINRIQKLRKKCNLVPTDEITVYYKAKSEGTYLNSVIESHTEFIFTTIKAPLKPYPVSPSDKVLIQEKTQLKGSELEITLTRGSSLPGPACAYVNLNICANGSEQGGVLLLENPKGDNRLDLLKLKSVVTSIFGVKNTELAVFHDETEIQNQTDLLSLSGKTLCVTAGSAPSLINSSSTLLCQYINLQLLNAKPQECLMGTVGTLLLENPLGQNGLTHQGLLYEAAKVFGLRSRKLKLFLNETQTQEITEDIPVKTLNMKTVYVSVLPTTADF

[3] = tested on: Pseudomonic fluoscenes (Psefl) enzyme; settings: SA IRS vs Pseudomonic fluoscenes enzyme
[4] = target: T2, isoleucyl-tRNA synthetase (IRS) (Staphylococcus aureus, UniProt P41972); settings: with respect to isoleucine
T2 sequence (P41972 1-917): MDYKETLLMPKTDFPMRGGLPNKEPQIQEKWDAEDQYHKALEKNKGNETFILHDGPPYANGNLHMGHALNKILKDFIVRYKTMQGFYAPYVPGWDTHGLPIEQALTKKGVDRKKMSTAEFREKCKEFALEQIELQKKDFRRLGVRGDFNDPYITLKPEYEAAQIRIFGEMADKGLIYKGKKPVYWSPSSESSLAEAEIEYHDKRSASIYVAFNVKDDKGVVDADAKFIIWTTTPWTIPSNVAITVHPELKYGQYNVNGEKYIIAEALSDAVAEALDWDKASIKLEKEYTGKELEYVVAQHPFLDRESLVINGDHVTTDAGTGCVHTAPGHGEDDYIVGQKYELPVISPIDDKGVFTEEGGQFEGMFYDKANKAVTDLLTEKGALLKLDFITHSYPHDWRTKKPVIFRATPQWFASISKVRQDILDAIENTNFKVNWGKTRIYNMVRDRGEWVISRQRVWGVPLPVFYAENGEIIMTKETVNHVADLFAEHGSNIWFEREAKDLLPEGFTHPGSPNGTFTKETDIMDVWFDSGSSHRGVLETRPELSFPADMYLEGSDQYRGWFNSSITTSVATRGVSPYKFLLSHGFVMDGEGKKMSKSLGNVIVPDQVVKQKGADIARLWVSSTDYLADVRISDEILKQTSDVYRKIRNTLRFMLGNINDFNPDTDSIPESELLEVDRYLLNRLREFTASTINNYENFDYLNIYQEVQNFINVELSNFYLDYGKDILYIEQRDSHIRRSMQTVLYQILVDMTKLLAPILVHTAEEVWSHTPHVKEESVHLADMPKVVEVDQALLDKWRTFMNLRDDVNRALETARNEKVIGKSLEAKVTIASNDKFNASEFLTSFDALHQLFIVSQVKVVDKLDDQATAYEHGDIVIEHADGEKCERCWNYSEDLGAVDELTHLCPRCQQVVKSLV

MRSA [5] = tested on: MRSA
MRSA [6] = settings: topical use
MRSA [7] = settings: in vivo
[8] = target: MURSA isoleucyl-tRNA synthetase (Staphylococcus aureus, UniProt P41368)

Structure (SMILES): C/C(=C\C(=O)OCCCCCCCCC(=O)O)C[C@@H]1OC[C@H](C[C@@H]2O[C@H]2[C@@H](C)[C@H](C)O)[C@@H](O)[C@H]1O [Mupirocin, mupirocin]
concentration at which mupirocin inhibits bacterial IRS [1]: nM concentrations
sensitivity of human isoleucyl-tRNA synthetase to the antibiotic [2]: resistant
concentration for binding the human enzyme relative to bacterial IRS ([2]; higher than for bacterial IRS): 3 to 4 orders of magnitude
difference in inhibition between SA IRS and Psefl enzyme [3]: 10^6
mode of inhibition of IRS [4]: competitive inhibitor for isoleucine
effectiveness against MRSA (MRSA [5]): highly effective
eradication of nasal carriage of MRSA (MRSA [6]): very successfully eradicated
eradication of MRSA in skin and virginal infections (MRSA [6]; after failure of intervenous vancomycin therapy): eradicated
effectiveness against bacteremia caused by MRSA (MRSA [7]): not very effective
sensitivity of MURSA isoleucyl-tRNA synthetase to the antibiotic [8]: resistant
half-life in vivo (metabolic conversion from pseudomonic acid to monic acid): short

clearance in the urine (in vivo): rapidly cleared
Structure (SMILES): C/C(=C\C(=O)O)C[C@@H]1OC[C@H](C[C@@H]2O[C@H]2[C@@H](C)[C@H](C)O)[C@@H](O)[C@H]1O [monic acid]
activity of the metabolite (in vivo): inactive
